Experiments:
[1] = system: CHO cells expressing an nanobody; assay: Fed batch culture of CHO cells expressing a nanobody in shake flasks, FeSO4 addition on day 6; type: cell-based, Chinese hamster; conditions: 1 mM iron added on day 6
Protocol: CHO cells expressing an nanobody were grown by fed batch culture in shake flasks. Cells were initially cultured in 7% CO2 incubator at 37° C. for 0-4 days and shifted to 31° C. after day 4. FeSO4 was added on day 6 to effect a concentration of 1 mM of iron in the cell culture medium. Cells were subjected to cell density, viability, titer, lactate level and Qp analysis at various time points throughout the cell culture process as described in Example 1.

[2] = system: cell line producing a monoclonal antibody (clone 2.8); assay: Fed batch culture of clone 2.8 in shake flasks, Fe addition on day 0 or day 9; type: cell-based; conditions: 600 μM added on day 0
Protocol: This experiment is designed to test whether a high concentration of Fe added at day 0 would have an advantageous effect. […] Seed density was 1.5×10^6 cells/mL. The cells were cultured for 14 days. The basal medium was a chemically defined basal medium supplemented with amino acids including 4 mM glutamine. Feed medium is a chemically defined concentrated feed medium. Fe-citrate or FeSO4 was added on day 0 or day 9 to effect a concentration of 600 μM of iron in the cell culture medium. Cells were subjected to cell density, viability, titer and Qp analysis at various time points throughout the cell culture process as described in previous examples.

O=S(=O)([O-])[O-].[Fe+2] [FeSO4]
Qp ([1]; control 10 μg/e6/day, FIG. 9): 20 μg/e6/day | lactate level ([1]; control increased to 2.24 g/L on day 15, FIG. 10): ~0 g/L | titer ([1]; read on day 15, control 1.5 g/L, FIG. 8): 3.2 g/L | viability ([1]; read on day 15, control 70%, FIG. 7): 96%

ferric citrate [Fe-citrate]
cell growth ([2]; FIG. 11): increased cell growth at early stage | viability on day 14 ([2]; control 74-80%, FIG. 12): about 75% | Qp ([2]; throughout the culture, FIG. 13): lower than all other conditions

From US20140322758A1, “ADDITION OF IRON TO IMPROVE CELL CULTURE” (Pfizer Inc., priority 2011, published 2014)
